Measured values reported in US4525473A, “Cephalosporins” (Bristol-Myers Company, priority 1983, dated 1985).
≈ marks a conversion by molar mass, not a printed value. Like-named read-outs stand apart in the source and are kept apart here.

What was measured:
Assay type in all cases: cell-based
[1] = system: Penicillin(PC)sensitive S. aureus; test: MIC by two-fold serial agar dilution in Mueller-Hinton agar, Gp-Ia; details: for MIC: Staphylococcus aureus
Procedure: (§1) In the primary evaluation of the compounds of this invention, the Minimum Inhibitory Concentrations (MIC's) of the compounds were determined by the two-fold serial agar dilution method in Mueller-Hinton agar against 32 strains of test organisms in six groups.
Gp-Ia: Penicillin(PC)sensitive S. aureus

PCresistant S. aureus = test: MIC by two-fold serial agar dilution in Mueller-Hinton agar, Gp-Ib; details: for MIC: Staphylococcus aureus, read-out: Geometric Mean of MIC
Procedure: as §1
GpIb: PCresistant S. aureus

[2] = system: Cephalothin(CET)sensitive E. coli (2 strains), K. pneumoniae (1) and P. mirabilis (2); test: MIC by two-fold serial agar dilution in Mueller-Hinton agar, Gn-Ia; details: for MIC: read-out: Geometric Mean of MIC
Procedure: as §1
GnIa: Cephalothin(CET)sensitive E. coli (2 strains), K. pneumoniae (1) an […]

[3] = system: CETresistant E. coli (3) and K. pneumoniae (2); test: MIC by two-fold serial agar dilution in Mueller-Hinton agar, Gn-Ib; details: for MIC: Escherichia coli, read-out: Geometric Mean of MIC
Procedure: as §1
GnIb: CETresistant E. coli (3) and K. pneumoniae (2)

[4] = system: M. morganii (1), E. cloacae (2) and S. marcescens (2); test: MIC by two-fold serial agar dilution in Mueller-Hinton agar, Gn-II; details: for MIC: read-out: Geometric Mean of MIC
Procedure: as §1
GnII: M. morganii (1), E. cloacae (2) and S. marcescens (2)

P. aeruginosa = test: MIC by two-fold serial agar dilution in Mueller-Hinton agar, Gn-III; details: for MIC: Pseudomonas aeruginosa, read-out: Geometric Mean of MIC
Procedure: as §1

[5] = Gp-Ia, 5 strains, PC-sensitive S. aureus
[6] = Gp-Ib, 5 strains, PC-resistant S. aureus
[7] = Gn-Ia, 5 strains, CET-sensitive
[8] = Gn-Ib, 5 strains, CET-resistant
[9] = Gn-III, 7 strains, P. aeruginosa
[10] = Gp-Ia, 5 strains, PC-sensitive S. aureus, read-out: Geometric Mean of MIC
[11] = read-out: Geometric Mean of MIC, Gp-Ia, 5 strains, PC-sensitive S. aureus

Molecule	Geometric Mean of MIC [1, 5]	Geometric Mean of MIC (PCresistant S. aureus; [6])	Geometric Mean of MIC [3, 8]	Geometric Mean of MIC ([4]; Gn-II, 5 strains)	Geometric Mean of MIC (P. aeruginosa; [9])	MIC [1, 10]	MIC (PCresistant S. aureus; [6])	MIC [2, 7]	MIC [3, 8]	MIC ([4]; Gn-II, 5 strains)	MIC (P. aeruginosa; [9])	MIC [3]	MIC [2]	further results
7-[(Z)-2-(2-Aminothiazol-4-yl)-2-methoxyiminoacetamido]-3-[(6-methyl-5,6,7,8-tetrahydro-6-[1,6]naphthylidinio)methyl]-3-cephem-4-carboxylate [Example 23]	1.4 µg/mL	2.9 µg/mL	0.28 µg/mL	0.96 µg/mL	6.3 µg/mL	–	–	–	–	–	–	–	–	Geometric Mean of MIC [2, 7]: 0.070 µg/mL
CO/N=C(\C(=O)NC1C(=O)N2C(C(=O)[O-])=C(C[N+]3(C)CCC[C@H]3C(N)=O)CSC12)c1csc(N)n1 (single isomer, unassigned) [8 Isomer A]	–	–	–	–	–	2.1 µg/mL (≈ 4.01 µM)	4.7 µg/mL (≈ 8.98 µM)	0.098 µg/mL (≈ 0.187 µM)	0.39 µg/mL (≈ 0.745 µM)	0.35 µg/mL (≈ 0.668 µM)	11 µg/mL (≈ 21 µM)	–	–	–
CO/N=C(\C(=O)NC1C(=O)N2C(C(=O)[O-])=C(C[N+]3(C)CCC[C@H]3C(N)=O)CSC12)c1csc(N)n1 (single isomer, unassigned) [8 Isomer B]	1.6 µg/mL	4.1 µg/mL	–	–	7.2 µg/mL	–	–	–	–	–	–	0.2 µg/mL (≈ 0.382 µM)	–	Geometric Mean of MIC [2, 7]: 0.057 µg/mL; MIC [4]: 0.23 µg/mL (≈ 0.439 µM)
CO/N=C(\C(=O)NC1C(=O)N2C(C(=O)[O-])=C(C[N+]3(C)CCOC3)CSC12)c1csc(N)n1 (single isomer, unassigned) [12 Isomer A]	–	–	–	–	–	–	4.4 µg/mL (≈ 9.12 µM)	0.046 µg/mL (≈ 0.0953 µM)	0.25 µg/mL (≈ 0.518 µM)	0.21 µg/mL (≈ 0.435 µM)	5.4 µg/mL (≈ 11.2 µM)	–	–	MIC [1, 11]: 1.1 µg/mL (≈ 2.28 µM)
CO/N=C(\C(=O)NC1C(=O)N2C(C(=O)[O-])=C(C[N+]3(C)CCOC3)CSC12)c1csc(N)n1 (single isomer, unassigned) [12 Isomer B]	1.3 µg/mL	4.4 µg/mL	0.21 µg/mL	0.18 µg/mL	4.0 µg/mL	–	–	–	–	–	–	–	0.04 µg/mL (≈ 0.0829 µM)	–
CO/N=C(\C(=O)NC1C(=O)N2C(C(=O)[O-])=C(C[N+]3(C)CCSC3)CSC12)c1csc(N)n1 (single isomer, unassigned) [13 Isomer A]	–	–	0.28 µg/mL	0.28 µg/mL	–	0.84 µg/mL (≈ 1.68 µM)	3.1 µg/mL (≈ 6.22 µM)	0.046 µg/mL (≈ 0.0923 µM)	–	–	5.9 µg/mL (≈ 11.8 µM)	–	–	–
CO/N=C(\C(=O)NC1C(=O)N2C(C(=O)[O-])=C(C[N+]3(C)CCSC3)CSC12)c1csc(N)n1 (single isomer, unassigned) [13 Isomer B]	0.72 µg/mL	1.6 µg/mL	0.13 µg/mL	0.13 µg/mL	–	–	–	–	–	–	–	–	0.029 µg/mL (≈ 0.0582 µM)	MIC (P. aeruginosa): 2.5 µg/mL (≈ 5.01 µM)
CO/N=C(\C(=O)NC1C(=O)N2C(C(=O)[O-])=C(C[N+]3(C)CCCCC3)CS[C@H]12)c1csc(N)n1 (stereo partly drawn) [Example 1, 7-[(Z)-2-(2-Aminothiazol-4-yl)-2-methoxyiminoacetamido]-3-(1-methyl-1-piperidinio)methyl-3-cephem-4-carboxylate]	–	–	–	–	–	–	2.9 µg/mL (≈ 5.86 µM)	0.03 µg/mL (≈ 0.0607 µM)	–	0.55 µg/mL (≈ 1.11 µM)	3.2 µg/mL (≈ 6.47 µM)	0.14 µg/mL (≈ 0.283 µM)	–	MIC [1, 11]: 1.3 µg/mL (≈ 2.63 µM)
CO/N=C(\C(=O)NC1C(=O)N2C(C(=O)[O-])=C(C[N+]3(C)CCOCC3)CS[C@H]12)c1csc(N)n1 (stereo partly drawn) [Example 2, 7-[(Z)-2-(2-Aminothiazol-4-yl)-2-methoxyiminoacetamido]-3-(4-methyl-4-morpholinio)methyl-3-cephem-4-carboxylate]	–	–	–	–	–	1.7 µg/mL (≈ 3.42 µM)	5 µg/mL (≈ 10.1 µM)	0.061 µg/mL (≈ 0.123 µM)	–	0.96 µg/mL (≈ 1.93 µM)	4 µg/mL (≈ 8.06 µM)	0.22 µg/mL (≈ 0.443 µM)	–	–
CO/N=C(\C(=O)NC1C(=O)N2C(C(=O)[O-])=C(C[N+]34CCC(CC3)CC4)CS[C@H]12)c1csc(N)n1 (stereo partly drawn) [Example 3, 7-[(Z)-2-(2-Aminothiazol-4-yl)-2-methoxyiminoacetamido]-3-(1-quinuclidinio)methyl-3-cephem-4-carboxylate]	–	–	–	–	–	0.77 µg/mL (≈ 1.52 µM)	–	–	0.14 µg/mL (≈ 0.276 µM)	0.84 µg/mL (≈ 1.66 µM)	2.8 µg/mL (≈ 5.53 µM)	–	0.04 µg/mL (≈ 0.079 µM)	MIC (PCresistant S. aureus): 2.5 µg/mL (≈ 4.93 µM)
